Measured values as given in patent US8192962B2, “Processes for detecting toxic substances” (Daikin Industries, Ltd., priority 2001, dated 2012).

System: DNA repair protein genes
Assay: DNA chip mRNA expression in yeast, DNA repair protein genes (Table 3)
Format: cell-based, Saccharomyces cerevisiae S288C
Conditions: incubated two hours, concentrations as in the 1st table
Outline: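 Cells were grown at 25° C. in YPD, treated at logarithmic phase for 2 h with a chemical at a concentration inhibiting growth but not causing death, and compared with untreated cultures. Labeled cDNA was hybridized to a DNA chip carrying all yeast genes, and the expression ratio was taken from scanner fluorescence.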

N#Cc1c(Cl)c(Cl)c(Cl)c(C#N)c1Cl [(9), 2,4,5,6-tetrachloro-1,3-benzenedicarbonitrile]
The level of expressed mRNA in the presence of chemical substance/The level of expressed mRNA in the absence of chemical substance (yeast gene YAL015C): 4.0 | The level of expressed mRNA in the presence of chemical substance/The level of expressed mRNA in the absence of chemical substance (yeast gene YAR007C): 4.1 | The level of expressed mRNA in the presence of chemical substance/The level of expressed mRNA in the absence of chemical substance (yeast gene YBL019W): 2.6 | The level of expressed mRNA in the presence of chemical substance/The level of expressed mRNA in the absence of chemical substance (yeast gene YBR073W): 2.5 | The level of expressed mRNA in the presence of chemical substance/The level of expressed mRNA in the absence of chemical substance (yeast gene YBR272C): 1.7 | The level of expressed mRNA in the presence of chemical substance/The level of expressed mRNA in the absence of chemical substance (yeast gene YCR014C): 2.4 | The level of expressed mRNA in the presence of chemical substance/The level of expressed mRNA in the absence of chemical substance (yeast gene YDL017W): 0.8 | The level of expressed mRNA in the presence of chemical substance/The level of expressed mRNA in the absence of chemical substance (yeast gene YDL059C): 10.5 | The level of expressed mRNA in the presence of chemical substance/The level of expressed mRNA in the absence of chemical substance (yeast gene YDL200C): 2.4 | The level of expressed mRNA in the presence of chemical substance/The level of expressed mRNA in the absence of chemical substance (yeast gene YDR054C): 2.9 | The level of expressed mRNA in the presence of chemical substance/The level of expressed mRNA in the absence of chemical substance (yeast gene YDR369C): 2.4 | The level of expressed mRNA in the presence of chemical substance/The level of expressed mRNA in the absence of chemical substance (yeast gene YEL019C): 0.7 | The level of expressed mRNA in the presence of chemical substance/The level of expressed mRNA in the absence of chemical substance (yeast gene YEL037C): 2.6 | The level of expressed mRNA in the presence of chemical substance/The level of expressed mRNA in the absence of chemical substance (yeast gene YER162C): 2.8 | The level of expressed mRNA in the presence of chemical substance/The level of expressed mRNA in the absence of chemical substance (yeast gene YFL014W): 13.1 | The level of expressed mRNA in the presence of chemical substance/The level of expressed mRNA in the absence of chemical substance (yeast gene YGL058W): 3.7 | The level of expressed mRNA in the presence of chemical substance/The level of expressed mRNA in the absence of chemical substance (yeast gene YGL091C): 10.8 | The level of expressed mRNA in the presence of chemical substance/The level of expressed mRNA in the absence of chemical substance (yeast gene YGL127C): 1.2 | The level of expressed mRNA in the presence of chemical substance/The level of expressed mRNA in the absence of chemical substance (yeast gene YGL163C): 5.8 | The level of expressed mRNA in the presence of chemical substance/The level of expressed mRNA in the absence of chemical substance (yeast gene YGL249W): 0.3 | The level of expressed mRNA in the presence of chemical substance/The level of expressed mRNA in the absence of chemical substance (yeast gene YGR180C): 1.4 | The level of expressed mRNA in the presence of chemical substance/The level of expressed mRNA in the absence of chemical substance (yeast gene YGR231C): 3.2 | The level of expressed mRNA in the presence of chemical substance/The level of expressed mRNA in the absence of chemical substance (yeast gene YGR258C): 2.5 | The level of expressed mRNA in the presence of chemical substance/The level of expressed mRNA in the absence of chemical substance (yeast gene YHR164C): 1.3 | The level of expressed mRNA in the presence of chemical substance/The level of expressed mRNA in the absence of chemical substance (yeast gene YIL036W): 3.6 | The level of expressed mRNA in the presence of chemical substance/The level of expressed mRNA in the absence of chemical substance (yeast gene YIL072W): 2.9 | The level of expressed mRNA in the presence of chemical substance/The level of expressed mRNA in the absence of chemical substance (yeast gene YIL143C): 7.1 | The level of expressed mRNA in the presence of chemical substance/The level of expressed mRNA in the absence of chemical substance (yeast gene YIL153W): 4.3 | The level of expressed mRNA in the presence of chemical substance/The level of expressed mRNA in the absence of chemical substance (yeast gene YIR002C): 1.7 | The level of expressed mRNA in the presence of chemical substance/The level of expressed mRNA in the absence of chemical substance (yeast gene YJL026W): 1.0 | The level of expressed mRNA in the presence of chemical substance/The level of expressed mRNA in the absence of chemical substance (yeast gene YJR046W): 6.0 | The level of expressed mRNA in the presence of chemical substance/The level of expressed mRNA in the absence of chemical substance (yeast gene YJR052W): 4.5 | The level of expressed mRNA in the presence of chemical substance/The level of expressed mRNA in the absence of chemical substance (yeast gene YKL145W): 3.5 | The level of expressed mRNA in the presence of chemical substance/The level of expressed mRNA in the absence of chemical substance (yeast gene YLR103C): 0.8 | The level of expressed mRNA in the presence of chemical substance/The level of expressed mRNA in the absence of chemical substance (yeast gene YLR233C): 0.6 | The level of expressed mRNA in the presence of chemical substance/The level of expressed mRNA in the absence of chemical substance (yeast gene YLR288C): 0.8 | The level of expressed mRNA in the presence of chemical substance/The level of expressed mRNA in the absence of chemical substance (yeast gene YML032C): 3.0 | The level of expressed mRNA in the presence of chemical substance/The level of expressed mRNA in the absence of chemical substance (yeast gene YML058W): 1.1 | The level of expressed mRNA in the presence of chemical substance/The level of expressed mRNA in the absence of chemical substance (yeast gene YMR035W): 1.7 | The level of expressed mRNA in the presence of chemical substance/The level of expressed mRNA in the absence of chemical substance (yeast gene YMR072W): 3.0 | The level of expressed mRNA in the presence of chemical substance/The level of expressed mRNA in the absence of chemical substance (yeast gene YMR096W): 3.3 | The level of expressed mRNA in the presence of chemical substance/The level of expressed mRNA in the absence of chemical substance (yeast gene YMR284W): 1.6 | The level of expressed mRNA in the presence of chemical substance/The level of expressed mRNA in the absence of chemical substance (yeast gene YNL213C): 3.0 | The level of expressed mRNA in the presence of chemical substance/The level of expressed mRNA in the absence of chemical substance (yeast gene YNL250W): 4.2 | The level of expressed mRNA in the presence of chemical substance/The level of expressed mRNA in the absence of chemical substance (yeast gene YNL261W): 2.3 | The level of expressed mRNA in the presence of chemical substance/The level of expressed mRNA in the absence of chemical substance (yeast gene YNL312W): 3.7 | The level of expressed mRNA in the presence of chemical substance/The level of expressed mRNA in the absence of chemical substance (yeast gene YOL043C): 1.0 | The level of expressed mRNA in the presence of chemical substance/The level of expressed mRNA in the absence of chemical substance (yeast gene YOR005C): 2.4 | The level of expressed mRNA in the presence of chemical substance/The level of expressed mRNA in the absence of chemical substance (yeast gene YOR386W): 4.1 | The level of expressed mRNA in the presence of chemical substance/The level of expressed mRNA in the absence of chemical substance (yeast gene YPL022W): 2.1 | The level of expressed mRNA in the presence of chemical substance/The level of expressed mRNA in the absence of chemical substance (yeast gene YPL164C): 2.1 | The level of expressed mRNA in the presence of chemical substance/The level of expressed mRNA in the absence of chemical substance (yeast gene YPL194W): 9.6 | The level of expressed mRNA in the presence of chemical substance/The level of expressed mRNA in the absence of chemical substance (yeast gene YPR025C): 1.9
